Our source for the IC50 values is patent US8674113B2, “Compounds” (Boehringer Ingelheim International GmbH, priority 2010, dated 2014).

The target in assay [1] is recombinant human mPGES-1 (Homo sapiens (Human), UniProt O14684). The assay can be described thus: mPGES-1 enzyme assay (HTRF detection of PGE2). The following applies: recombinant human mPGES-1 microsomes, PGH2 2 μM, 60 seconds; read-out: mPGES-1 inhibitory effect IC50 in the enzyme assay. In kind it is biochemical. The procedure, abridged: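 Microsomes from E. coli expressing recombinant human mPGES-1 (~0.5 μg protein/well) in 0.1 M phosphate pH 7.4 with 2.5 mM GSH, pre-incubated with compound 25 min at room temperature. PGH2 (2 μM final) added, reaction stopped with FeCl2 after 60 s; PGE2 quantified by HTRF (665/620 ratio) against a calibration curve, IC50 by nonlinear regression after background subtraction.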

In another assay the target is mPGES-1 in A549 cells (Homo sapiens (Human), UniProt O14684). The assay can be described thus: A549 cell-based assay (PGE2 formation, 50% human serum). The following applies: IL-1β 5 ng/ml, 10 nM arachidonic acid, 20-24 h, read-out: mPGES-1 inhibitory effect IC50 in the cell assay. The procedure, abridged:
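A549 cells in F-12K with 50% human serum were stimulated 20-24 h with 5 ng/ml IL-1β and 10 nM arachidonic acid in presence of compound or vehicle. PGE2 in the cell-free medium was measured by HTRF, normalised to vehicle (100%). IC50 from 6-8 point titrations.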

A value given as a limit tells only on which side of the number the result lay.

mPGES-1 in A549 cells, sequence (O14684 whole entry): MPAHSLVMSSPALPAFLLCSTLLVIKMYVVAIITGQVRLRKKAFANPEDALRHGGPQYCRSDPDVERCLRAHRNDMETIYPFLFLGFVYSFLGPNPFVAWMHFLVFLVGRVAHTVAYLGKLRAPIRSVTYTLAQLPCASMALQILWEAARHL
recombinant human mPGES-1, sequence (O14684 whole entry): as above

In the case of `CC(NC(=O)c1cc2nc(Nc3c(Cl)ccc(CNC(=O)C(C)(C)C)c3Cl)n(C)c2cc1N1CCC(F)(F)C1)c1cccs1` (stereo not shown) [Example 36], the IC50 was found to be 5 nM in assay [1] and 6.5 nM at mPGES-1 in A549 cells.
Taken in the same sequence, the figures for `Cn1c(Nc2c(Cl)ccc(CNC(=O)C(C)(C)C)c2Cl)nc2cc(C(=O)N[C@H]3CC[C@@H](C(F)(F)F)CC3)c(N3CCC(C(F)(F)F)CC3)cc21` [Example 61] were 2 nM and < 1 nM.
